Results: PubChem BioAssay (NCI)
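Grown in 96-well plates, cells were treated for 48 hours with each compound at five concentrations. Insufficient inhibition: endpoint recorded as highest concentration tested. Here, GI50 denotes the concentration required for 50% inhibition of growth. TGI: concentration producing complete growth inhibition.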

Key:
Test in all cases: NCI anticancer screen, dose series, 48 h
NCI/ADR-RES ovarian = tested on: NCI/ADR-RES ovarian
SK-MEL-2 melanoma = tested on: SK-MEL-2 melanoma
CAKI-1 renal = tested on: CAKI-1 renal
SNB-75 CNS = tested on: SNB-75 CNS
SNB-19 CNS = tested on: SNB-19 CNS
PC-3 prostate = tested on: PC-3 prostate
A498 renal = tested on: A498 renal
NCI-H226 lung = tested on: NCI-H226 lung
HCT-15 colon = tested on: HCT-15 colon
KM12 colon = tested on: KM12 colon

| SMILES | GI50 (NCI/ADR-RES ovarian) | TGI (NCI/ADR-RES ovarian) | GI50 (SK-MEL-2 melanoma) | TGI (SK-MEL-2 melanoma) | GI50 (CAKI-1 renal) | TGI (CAKI-1 renal) | GI50 (SNB-75 CNS) | TGI (SNB-75 CNS) | GI50 (SNB-19 CNS) | TGI (SNB-19 CNS) | GI50 (PC-3 prostate) | TGI (PC-3 prostate) | GI50 (A498 renal) | TGI (A498 renal) | GI50 (NCI-H226 lung) | TGI (NCI-H226 lung) | GI50 (HCT-15 colon) | TGI (HCT-15 colon) | GI50 (KM12 colon) | TGI (KM12 colon) |
| --- | --- | --- | --- | --- | --- | --- | --- | --- | --- | --- | --- | --- | --- | --- | --- | --- | --- | --- | --- | --- |
| COC(=O)c1oc2c(C(=O)/C=C/c3ccc(OC)cc3)c(OCCN(C)C)ccc2c1C | 10.3 µM | 28 µM | 12.4 µM | 28.8 µM | 6.95 µM | 20.2 µM | 9.94 µM | 22.2 µM | 10.9 µM | 23.5 µM | 8.43 µM | 21.7 µM | 10.1 µM | 22.6 µM | 13.1 µM | 27.8 µM | 4.13 µM | 16.8 µM | 9.43 µM | 24.5 µM |
| CCN(Cc1cccc(Cl)c1)c1ccc(CO)c(Cl)c1 | 10.8 µM | 23.8 µM | 3.86 µM | 20.8 µM | 0.724 µM | 10.1 µM | 12 µM | 30.2 µM | 13.8 µM | 28.6 µM | 9.8 µM | 23.2 µM | 0.029 µM | 0.166 µM | 0.0905 µM | 0.236 µM | 9.93 µM | 25.9 µM | 12.9 µM | 26.8 µM |
| CCCCCC/C=C\CCCCCCCCCC1=C(CN2CCN(C)CC2)C(=O)C=C(OC)C1=O | – | 11.5 µM | – | 18.7 µM | – | 7.03 µM | – | 16.6 µM | – | 24.1 µM | – | 10.5 µM | – | 32.6 µM | – | 30 µM | – | 7.87 µM | – | 21 µM |
| C=CCC(N[C@H](CO)c1ccccc1)c1cn(Cc2ccccc2Cl)c(=O)n(Cc2ccccc2Cl)c1=O (stereo not given in full) | 9.26 µM | > 100 µM | 18.9 µM | 57.5 µM | 4.46 µM | 32.2 µM | 16.6 µM | 64.8 µM | 35.7 µM | > 100 µM | 4.03 µM | 26.7 µM | 11 µM | 39.1 µM | 13.7 µM | 49.8 µM | 9.27 µM | 35.2 µM | 17.5 µM | 73.3 µM |
| C/C=C1/CC(C)C(C)(O)C(=O)OCC2C(O)CN3CCC(OC1=O)C23 (stereo not given) | – | > 100 µM | – | > 100 µM | – | > 100 µM | – | > 100 µM | – | > 100 µM | – | > 100 µM | – | > 100 µM | – | > 100 µM | – | > 100 µM | – | > 100 µM |
| CC(=O)C1=C(O)C=C2Oc3c(C(=O)/C=C/c4cc(Cl)cc(Cl)c4)c(O)c(C)c(O)c3[C@]2(C)C1=O | 0.537 µM | 1.96 µM | 0.365 µM | 0.924 µM | 0.502 µM | 4.19 µM | 1.66 µM | 4.06 µM | 0.582 µM | 3.06 µM | 0.537 µM | 2.04 µM | 0.259 µM | 0.5 µM | 1.21 µM | 5.49 µM | 0.539 µM | 2.54 µM | 0.46 µM | 1.76 µM |
| Cn1cc(-c2cnn3c(N)c(Br)c(C4CCCNC4)nc23)cn1 (stereo not given) | 8.36 µM | > 100 µM | 17.1 µM | 63.7 µM | 5.43 µM | > 38.5 µM | 0.464 µM | 39.1 µM | 18.4 µM | > 100 µM | 5.26 µM | > 86.2 µM | 0.238 µM | 2 µM | 13.9 µM | > 96 µM | 14.2 µM | > 79.9 µM | 3.69 µM | 44.7 µM |
| CC(=O)NNc1nc(C)c(C(/C=C/c2ccccc2O)=N/N=C(N)N)s1 | – | > 100 µM | – | > 100 µM | – | > 100 µM | – | > 100 µM | – | > 100 µM | – | > 100 µM | – | > 100 µM | – | > 100 µM | – | > 100 µM | – | > 100 µM |
| Nc1nc(/C=C\c2ccccc2)nc(N2CCN(c3ccccc3)CC2)n1 | 25.5 µM | 93.3 µM | 32.5 µM | 91.7 µM | 15.6 µM | 43.6 µM | 22.2 µM | 69.4 µM | 20.4 µM | 60 µM | 27.9 µM | > 100 µM | 35.1 µM | 87.9 µM | 27.9 µM | 94.5 µM | 16.3 µM | 78 µM | 27.2 µM | 60.6 µM |
| Cc1cc(Nc2cc(N3CCN(C)CC3)nc(/C=C/c3ccccc3)n2)n[nH]1 | 2.03 µM | > 10 µM | 0.702 µM | > 2.39 µM | 0.223 µM | > 5.38 µM | 0.391 µM | 2.12 µM | 1.49 µM | > 10 µM | 0.794 µM | > 6.61 µM | 0.389 µM | 1.66 µM | 1.29 µM | > 9.46 µM | 0.326 µM | > 10 µM | 0.0426 µM | > 3.84 µM |
| Oc1c(Cl)cc(Cl)c2ccc(Cn3cc(-c4ccc(C(F)(F)F)cc4)nn3)nc12 | 19 µM | 64.2 µM | 2.67 µM | 7.65 µM | 1.25 µM | 2.97 µM | 1.74 µM | 10.8 µM | 8.94 µM | 22.8 µM | 3 µM | 11.1 µM | 3.57 µM | 13.8 µM | 5.64 µM | 26.7 µM | 1.42 µM | 3.3 µM | 12.1 µM | 26.6 µM |
| O=C1C=CC(=O)c2c(O)c3c(c(O)c21)C[C@H](O)[C@H](O)[C@@H]3O | – | 8.16 µM | – | 3.43 µM | – | 4.38 µM | – | 7.99 µM | – | 26.9 µM | – | 8.34 µM | – | 13.3 µM | – | 36.7 µM | – | 7.19 µM | – | 16.8 µM |
| CCCCCCCCCCCCOC1C(CNC(=O)C2OC3OC(C)(C)OC3C2NC(=O)CN2CCN(c3ccc(OC)cc3)CC2)OC2OC(C)(C)OC21 (stereo not given) | 4.03 µM | 16.1 µM | 11.7 µM | 23.9 µM | 12.1 µM | 24.5 µM | 4.46 µM | 17.4 µM | 5.3 µM | 17 µM | 2.82 µM | 9.79 µM | 7.96 µM | 20.3 µM | 5.56 µM | 19.2 µM | 3.53 µM | 11.3 µM | 3.35 µM | 10.9 µM |
| CC1(C)CCCC(C)(C2CCC3(C)C2C(O)CC2C4(C)CCC(O)C(C)(C)C4CCC23C)O1 (stereo not given) | – | > 100 µM | – | > 100 µM | – | > 100 µM | – | > 100 µM | – | > 100 µM | – | > 100 µM | – | > 100 µM | – | > 100 µM | – | > 100 µM | – | > 100 µM |
| Cc1cc(C)c(-c2c(N)cc(Br)cc2Br)c(N)c1 | 2.98 µM | 9.11 µM | 3.95 µM | 14.1 µM | 3.83 µM | 19.1 µM | 2.48 µM | 10.1 µM | 6.68 µM | 26.4 µM | 6.42 µM | 26.5 µM | 2.35 µM | 14.4 µM | 11.8 µM | 26.5 µM | 4.7 µM | 17.3 µM | 3.89 µM | 14.5 µM |
| CCOc1ccn(-c2ccc(F)cc2)c(=O)c1C(=O)Nc1ccc(Oc2ccnc(N)c2Cl)c(F)c1 | 13.6 µM | > 65.7 µM | 14 µM | 35.7 µM | 7.57 µM | 56.4 µM | 2.39 µM | 22.5 µM | 27.8 µM | > 100 µM | 9.02 µM | > 100 µM | 1.6 µM | 12.2 µM | 10.6 µM | > 96.1 µM | 10.6 µM | > 79.6 µM | 0.404 µM | > 100 µM |
| O=C1O/C(=C/c2ccccc2)C(c2ccccc2)=C1O | – | > 100 µM | – | 31.6 µM | – | > 100 µM | – | > 100 µM | – | > 100 µM | – | > 100 µM | – | 85.6 µM | – | > 100 µM | – | > 100 µM | – | > 100 µM |
| CC(=O)[C@H]1CCC/C=C/[C@@H]2C[C@H](O)C[C@H]2[C@H](O)/C=C/C(=O)O1 | 0.527 µM | 3.46 µM | 0.689 µM | 2.91 µM | 0.645 µM | > 23.3 µM | 0.237 µM | > 100 µM | 1.64 µM | > 100 µM | 0.678 µM | > 100 µM | 0.118 µM | 1.37 µM | 0.976 µM | 2.28 µM | 1.05 µM | > 44.7 µM | 0.75 µM | > 19.7 µM |
| Nc1ccccc1C(=O)CCC1C(=O)NC(=S)NC1=O | – | > 100 µM | – | > 100 µM | – | > 100 µM | – | > 89.6 µM | – | > 100 µM | – | > 100 µM | – | > 100 µM | – | > 100 µM | – | > 100 µM | – | > 100 µM |
| CCN(CC)CCCC(C)N/C(=C1\C(=O)NC(=O)\C1=C(/NC(C)CCCN(CC)CC)c1cccc(OC)c1)c1cccc(OC)c1 (stereo not given) | 1.36 µM | 5.04 µM | 0.947 µM | 1.8 µM | 1.03 µM | 2.52 µM | 0.735 µM | 1.67 µM | 1.99 µM | 9.01 µM | 0.877 µM | 2.56 µM | 0.791 µM | 5.58 µM | 1.29 µM | 5.9 µM | 0.764 µM | 4.07 µM | 0.835 µM | 4.06 µM |
